Data on eleven compounds can be found in patent US11939334B2, “Substituted pyrimido[4,5-b][1,4]diazepines as PLK1 degradation inducers” (UPPTHERA, INC., priority 2021, dated 2024).

Some results are limits rather than exact numbers.

For one data set, the system named is MRC-5 cell line. As to the kind of experiment: Cell viability assay for MRC-5 cell line. The conditions noted are these: for IC50: Homo sapiens, MRC5, 120 h, read-out: Activity: IC50 value (nM) to MRC-5 cell line.
Another data set relates to H526 cell line. As to the kind of experiment: Cell viability assay for H526 cell line. In kind it is cell-based. Particulars: Homo sapiens, NCI-H526, 120 h; H526 cells, 5 days, EZ-Cytox, 0.46-3000 nM. The essentials:
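NCI-H526 cells exposed to compounds for 5 days in a CO2 incubator; viability read as absorbance at 450 nm after 3 min plate shaking; IC50 derived from treatment response.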

A further data set has as its target T1, PLK1 (Homo sapiens, UniProt P53350).
T1 construct: endogenous in cells; host or cells: HeLa cells stably expressing LgBit, with CRISPR/Cas9 knock-in of HiBit at the endogenous PLK1 locus
The experiment in a line: Luciferase assay for PLK1 in HeLa LgBit (Plk1-HiBit KI) cell line. The conditions noted are these: 300 nM compound, luminescence after 9 hours. In kind it is cell-based. Summed up: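 HeLa LgBit cells with endogenous Plk1 C-terminally HiBiT-tagged by CRISPR knock-in were synchronized by 2 mM thymidine block for 24 h, then released and seeded. After 18 h, Endurazine was added and compounds were dosed at 300 nM. Luminescence was tracked in real time; activity is the ratio to DMSO.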
On the technique in general: HiBiT is a short tag that completes a luciferase, so light tracks the accessible tagged protein.

Data set [1] can be described thus: Cell viability assay for MRC-5 cell line. Particulars: human.
Protocol: Cell Viability Assay for MRC-5 Cell Line
(1) Culture of MRC-5 Cell Line
The MRC-5 cell line was purchased from Korea Cell Line Bank (KCLB), Seoul, Korea. Passage of cultured cells was maintained within P15.
(2) Treatment of Compounds of the Present Invention
6×10^3 cells were seeded for each well of a 96-well plate (SPL), and the cells were cultured in total volume of 150 μL.
Each well was mixed with a medium and treated, and the volume was set to 50 μL, so that the total volume of each well was 200 μL. Then, it was cultured in 37° C.
The following compounds were used as comparative examples, and the cell viability assay was performed in the same manner as in the compounds of Examples.
(3) Cytotoxicity Experiment
After treating EZ-Cytox (DOGEN, Cat. NO. EZ-3000, Lot. No. DLS2112) 20 μL in each well of completely cultured plate, it was cultured in 37° C. CO2 incubator for 4 hours. […] The data were converted into graphs using the Prism (ver. 9) program.

T1 sequence (P53350 whole entry): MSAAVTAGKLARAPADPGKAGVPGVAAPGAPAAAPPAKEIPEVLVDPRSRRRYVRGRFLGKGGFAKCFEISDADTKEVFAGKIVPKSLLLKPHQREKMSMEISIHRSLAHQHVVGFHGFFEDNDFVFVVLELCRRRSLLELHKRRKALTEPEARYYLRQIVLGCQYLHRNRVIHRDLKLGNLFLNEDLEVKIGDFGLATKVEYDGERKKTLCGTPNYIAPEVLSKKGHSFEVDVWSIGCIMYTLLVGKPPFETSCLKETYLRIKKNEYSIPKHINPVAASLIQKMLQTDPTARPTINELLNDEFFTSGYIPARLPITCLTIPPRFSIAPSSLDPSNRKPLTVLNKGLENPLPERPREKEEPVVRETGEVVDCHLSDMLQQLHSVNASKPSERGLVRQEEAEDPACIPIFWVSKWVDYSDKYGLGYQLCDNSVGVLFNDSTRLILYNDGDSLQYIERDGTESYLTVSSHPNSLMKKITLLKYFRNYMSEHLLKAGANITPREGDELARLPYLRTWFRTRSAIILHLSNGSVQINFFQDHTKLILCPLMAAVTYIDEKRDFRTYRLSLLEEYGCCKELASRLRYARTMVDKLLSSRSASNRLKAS

In the case of `CC[C@@H]1C(=O)N(C)c2cnc(Nc3ccc(C(=O)NCCOCCOCCNc4cccc5c4C(=O)N(C4CCC(=O)NC4=O)C5=O)cc3OC)nc2N1C1CCCC1` (stereo partly shown) [Comparative Compound 1, reference compound], the “cytotoxicity in normal cell line (in words)” value in the data set on MRC-5 cell line (MRC-5 cell line) is “high level of cytotoxicity in normal cell line”.
The IC50 is the midpoint of a concentration-inhibition curve. Turning to `COc1cc(C(=O)NC2CC(N(C)CCC3CCN(c4cccc(C5CCC(=O)NC5=O)c4)CC3)C2)ccc1Nc1ncc2c(n1)N(C(C)C)CC1(CC1)C(=O)N2C` (stereo not shown) [Compound 6, N-(3-((2-(1-(3-(2,6-dioxopiperidin-3-yl)phenyl)piperidin-4-yl)ethyl)(methyl)amino)cyclobutyl)-4-((9′-isopropyl-5′-methyl-6′-oxo-5′,6′,8′,9′-tetrahydrospiro[cyclopropane-1,7′-pyrimido[4,5-b][1,4]diazepin]-2′-yl)amino)-3-methoxybenzamide], the half-inhibitory concentration (IC50) with MRC-5 cell line was 12300 nM; with H526 cell line, less than 0.4 µM. Also, the “Activity: ratio of the luminescence value of each Exemplary Compound treatment group to DMSO treatment group” value (shortened to “Activity: ratio”) at PLK1 is on record as “++ (++ <0.6)”.
As to `COc1cc(C(=O)NC2CCC(N(C)CC3CCN(c4ccc(C5CCC(=O)NC5=O)cc4F)CC3)CC2)ccc1Nc1ncc2c(n1)N(C(C)C)CC(F)(F)C(=O)N2C` (stereo not shown) [Compound 7, 4-((7,7-difluoro-9-isopropyl-5-methyl-6-oxo-6,7,8,9-tetrahydro-5H-pyrimido[4,5-b][1,4]diazepin-2-yl)amino)-N-((1r,4r)-4-(((1-(4-(2,6-dioxopiperidin-3-yl)-2-fluorophenyl)piperidin-4-yl)methyl)(methyl)amino)cyclohexyl)-3-methoxybenzamide], the figures for the half-maximal inhibitory concentration (IC50) in the data set with MRC-5 cell line and with H526 cell line were 13000 nM and less than 0.03 µM, respectively. The “Activity: ratio” value at PLK1 was “+++ (+++: <0.3)”.
As for `COc1cc(C(=O)N[C@H]2CC[C@H](N(C)CCN3CCN(c4ccc(C5CCC(=O)NC5=O)cc4F)CC3)CC2)ccc1Nc1ncc2c(n1)N(C(C)C)CC(F)(F)C(=O)N2C` (stereo partly shown) [Compound 9, 4-((7,7-difluoro-9-isopropyl-5-methyl-6-oxo-6,7,8,9-tetrahydro-5H-pyrimido[4,5-b][1,4]diazepin-2-yl)amino)-N-((1r,4r)-4-((2-(4-(4-(2,6-dioxopiperidin-3-yl)-2-fluorophenyl)piperazin-1-yl)ethyl)(methyl)amino)cyclohexyl)-3-methoxybenzamide], the IC50 in the data set with MRC-5 cell line was 16600 nM; in the data set with H526 cell line, less than 0.05 µM. In addition, the “Activity: ratio” value on PLK1 is given as “++ (++ <0.6)”.
On to `COc1cc(C(=O)N[C@H]2CC[C@H](N(C)CCN3CCN(c4c(F)cc(C5CCC(=O)NC5=O)cc4F)CC3)CC2)ccc1Nc1ncc2c(n1)N(C(C)C)CC(F)(F)C(=O)N2C` (stereo partly shown) [Compound 10, 4-((7,7-difluoro-9-isopropyl-5-methyl-6-oxo-6,7,8,9-tetrahydro-5H-pyrimido[4,5-b][1,4]diazepin-2-yl)amino)-N-((1r,4r)-4-((2-(4-(4-(2,6-dioxopiperidin-3-yl)-2,6-difluorophenyl)piperazin-1-yl)ethyl)(methyl)amino)cyclohexyl)-3-methoxybenzamide], for which the IC50 in the data set with MRC-5 cell line is 15600 nM; in the data set with H526 cell line, less than 0.05 µM. The “Activity: ratio” value on PLK1 is “++ (++ <0.6)”.
The matching figures for `COc1cc(C(=O)NC2CCN(CC3CN(c4ccc(C5CCC(=O)NC5=O)cc4F)C3)CC2)ccc1Nc1ncc2c(n1)N(C(C)C)CC(F)(F)C(=O)N2C` (stereo not shown) [Compound 12, 4-((7,7-difluoro-9-isopropyl-5-methyl-6-oxo-6,7,8,9-tetrahydro-5H-pyrimido[4,5-b][1,4]diazepin-2-yl)amino)-N-(1-((1-(4-(2,6-dioxopiperidin-3-yl)-2-fluorophenyl)azetidin-3-yl)methyl)piperidin-4-yl)-3-methoxybenzamide]: 24600 nM, less than 0.05 µM and “++ (++ <0.6)”.
The matching figures for `COc1cc(C(=O)NC2CC3(CCN(CC4CCN(c5ccc(C6CCC(=O)NC6=O)cc5F)CC4)CC3)C2)c(F)cc1Nc1ncc2c(n1)N(C(C)C)CC(F)(F)C(=O)N2C` (stereo not shown) [Compound 14, 4-((7,7-difluoro-9-isopropyl-5-methyl-6-oxo-6,7,8,9-tetrahydro-5H-pyrimido[4,5-b][1,4]diazepin-2-yl)amino)-N-(7-((1-(4-(2,6-dioxopiperidin-3-yl)-2-fluorophenyl)piperidin-4-yl)methyl)-7-azaspiro[3.5]nonan-2-yl)-2-fluoro-5-methoxybenzamide]: 14700 nM, less than 0.05 µM and “++ (++ <0.6)”.
With `COc1cc(C(=O)NC2CC3(CCN(CC4CCN(c5c(F)cc(C6CCC(=O)NC6=O)cc5F)CC4)CC3)C2)ccc1Nc1ncc2c(n1)N(C(C)C)CC(F)(F)C(=O)N2C` (stereo not shown) [Compound 15, 4-((7,7-difluoro-9-isopropyl-5-methyl-6-oxo-6,7,8,9-tetrahydro-5H-pyrimido[4,5-b][1,4]diazepin-2-yl)amino)-N-(7-((1-(4-(2,6-dioxopiperidin-3-yl)-2,6-difluorophenyl)piperidin-4-yl)methyl)-7-azaspiro[3.5]nonan-2-yl)-3-methoxybenzamide], the IC50 is 17700 nM in the data set with MRC-5 cell line and less than 0.03 µM with H526 cell line. Further, at PLK1, the “Activity: ratio” value is on record as “++ (++ <0.6)”.
On to `COc1cc(C(=O)NC2CC(N(C)CC3CCN(c4ccc(C5CCC(=O)NC5=O)cc4F)CC3)C2)ccc1Nc1ncc2c(n1)N(C(C)C)CC(F)(F)C(=O)N2C` (stereo not shown) [Compound 44, 4-((7,7-difluoro-9-isopropyl-5-methyl-6-oxo-6,7,8,9-tetrahydro-5H-pyrimido[4,5-b][1,4]diazepin-2-yl)amino)-N-(3-(((1-(4-(2,6-dioxopiperidin-3-yl)-2-fluorophenyl)piperidin-4-yl)methyl)(methyl)amino)cyclobutyl)-3-methoxybenzamide], for which the IC50 at 5 days in data set [1] (MRC-5 cells (normal cell line)) was more than 10 µM. The IC50 with H526 cell line is less than 0.03 µM. The “Activity: ratio” value at PLK1 was “+++ (+++: <0.3)”.
In data set [1] (MRC-5 cells (normal cell line)), `COc1cc(C(=O)NN2CCC(CCN3CCN(c4ccc(C5CCC(=O)NC5=O)cc4F)CC3)CC2)ccc1Nc1ncc2c(n1)N(C(C)C)CC(F)(F)C(=O)N2C` (stereo not shown) [Compound 45, 4-((7,7-difluoro-9-isopropyl-5-methyl-6-oxo-6,7,8,9-tetrahydro-5H-pyrimido[4,5-b][1,4]diazepin-2-yl)amino)-N-(4-(2-(4-(4-(2,6-dioxopiperidin-3-yl)-2-fluorophenyl)piperazin-1-yl)ethyl)piperidin-1-yl)-3-methoxybenzamide] displayed an IC50 at 5 days of more than 10 µM. In the data set with H526 cell line, this compound registered an IC50 of less than 0.03 µM. Further, on PLK1, the “Activity: ratio” value is “+++ (+++: <0.3)”.
`COc1cc(C(=O)NC2CC23CCN(CC2CCN(c4ccc(C5CCC(=O)NC5=O)cc4F)CC2)CC3)ccc1Nc1ncc2c(n1)N(C(C)C)CC(F)(F)C(=O)N2C` (stereo not shown) [Compound 46, 4-((7,7-difluoro-9-isopropyl-5-methyl-6-oxo-6,7,8,9-tetrahydro-5H-pyrimido[4,5-b][1,4]diazepin-2-yl)amino)-N-(6-((1-(4-(2,6-dioxopiperidin-3-yl)-2-fluorophenyl)piperidin-4-yl)methyl)-6-azaspiro[2.5]octan-1-yl)-3-methoxybenzamide] showed an IC50 at 5 days in data set [1] of more than 10 µM. The IC50 in the data set with H526 cell line was less than 0.1 µM. On PLK1, the “Activity: ratio” value was “+++ (+++: <0.3)”.
